Experimental data: ChEMBL document CHEMBL4825757, “Optimization of 4,6-Disubstituted Pyrido[3,2-d]pyrimidines as Dual MNK/PIM Inhibitors to Inhibit Leukemia Cell Growth” (J Med Chem, 2021)
Activity calls are given as the source filed them. The calls are words filed in the database; no cut-off is given here.

What was measured:
[1] = Intrinsic clearance in human liver microsomes preincubated for 10 mins followed by NADPH addition and further incubated upto 60 mins by LC-MS/MS analysis; type: ADME, Microsome; conditions: time <=70 min, read-out: CLH
[2] = Metabolic stability in rat liver microsomes assessed as half life preincubated for 10 mins followed by NADPH addition and further incubated upto 60 mins by LC-MS/MS analysis; type: ADME, Microsome; conditions: time <=70 min
[3] = Intrinsic clearance in rat liver microsomes preincubated for 10 mins followed by NADPH addition and further incubated upto 60 mins by LC-MS/MS analysis; type: ADME, Microsome; conditions: time <=70 min, read-out: CLH
MOLM-13 [4] = experiment: Induction of cell cycle arrest in human MOLM-13 cells assessed as G1 phase at 1 uM incubated for 12 hr by propidium iodide based flow cytometry analysis (Rvb= 51.29%); type: functional
K562 [5] = experiment: Downregulation of c-myc levels in human K562 cells at 1 to 2 uM incubated for 24 hrs by western blot analysis; type: functional, cell-based; conditions: dose 1-2 µM
K562 [6] = experiment: Downregulation of mcl-1 levels in human K562 cells at 1 to 2 uM incubated for 24 hrs by western blot analysis; type: functional, cell-based; conditions: dose 1-2 µM
[7] = molecular target: T1, Serine/threonine-protein kinase PIM (Homo sapiens) (UniProt P11309+Q9P1W9+Q86V86); experiment: Inhibition of PIM in human MOLM-13 cells assessed as reduction in phosphorylated 4EBP1 at 1 to 2 uM incubated for 12 hrs by western blot analysis; type: cell-based; conditions: dose 1-2 µM
MOLM-13 [8] = experiment: Induction of apoptosis in human MOLM-13 cells assessed as early apoptotic cells at 2 uM incubated for 12 hrs by annexin-V and propidium iodide staining based flow cytometry analysis (reference value: 5.40%); type: functional
MOLM-13 [9] = experiment: Antiproliferative activity against human MOLM13 cells assessed as reduction of cell viability incubated for 72 hrs by trypan blue staining based cell counting analysis; type: functional
MOLM-13 [10] = experiment: Induction of apoptosis in human MOLM-13 cells assessed as early apoptotic cells at 1 uM incubated for 12 hrs by annexin-V and propidium iodide staining based flow cytometry analysis (reference value: 5.40%); type: functional
K562 [11] = experiment: Antiproliferative activity against human K562 cells assessed as reduction of cell viability incubated for 72 hrs by trypan blue staining based cell counting analysis; type: functional
MOLM-13 [12] = experiment: Induction of apoptosis in human MOLM-13 cells assessed as necrotic cells at 1 uM incubated for 12 hrs by annexin-V and propidium iodide staining based flow cytometry analysis (reference value: 0.06%); type: functional
MOLM-13 [13] = experiment: Induction of cell cycle arrest in human MOLM-13 cells assessed as G1 phase at 2 uM incubated for 12 hr by propidium iodide based flow cytometry analysis (Rvb= 51.29%); type: functional
MOLM-13 [14] = experiment: Induction of apoptosis in human MOLM-13 cells assessed as live cells at 1 uM incubated for 12 hrs by annexin-V and propidium iodide staining based flow cytometry analysis (reference value: 91.49%); type: functional
MOLM-13 [15] = experiment: Induction of apoptosis in human MOLM-13 cells assessed as late apoptotic cells at 2 uM incubated for 12 hrs by annexin-V and propidium iodide staining based flow cytometry analysis (reference value: 3.03%); type: functional
[16] = molecular target: T1, Serine/threonine-protein kinase PIM (Homo sapiens); experiment: Inhibition of PIM in human MOLM-13 cells assessed as reduction of BAD phosphorylation at 1 to 2 uM incubated for 12 hrs by western blot analysis; type: cell-based; conditions: dose 1-2 µM
K562 [17] = experiment: Downregulation of cyclin-D1 levels in human K562 cells at 1 to 2 uM incubated for 24 hrs by western blot analysis; type: functional, cell-based; conditions: dose 1-2 µM
[18] = molecular target: MAP kinase-interacting serine/threonine-protein kinase 1/2 (Homo sapiens) (UniProt Q9HBH9+Q9BUB5); experiment: Inhibition of MNK1/MNK2 in human MOLM-13 cells assessed as reduction in eIF4E phosphorylation at 1 to 2 uM incubated for 12 hrs by western blot analysis; type: cell-based; conditions: dose 1-2 µM
MOLM-13 [19] = experiment: Downregulation of mcl-1 levels in human MOLM-13 cells at 1 to 2 uM incubated for 12 hrs by western blot analysis; type: functional, cell-based; conditions: dose 1-2 µM
HL-60 = experiment: Antiproliferative activity against human HL-60 cells assessed as reduction of cell viability incubated for 72 hrs by trypan blue staining based cell counting analysis; type: functional
MOLM-13 [20] = experiment: Induction of apoptosis in human MOLM-13 cells assessed as late apoptotic cells at 1 uM incubated for 12 hrs by annexin-V and propidium iodide staining based flow cytometry analysis (reference value: 3.03%); type: functional
MOLM-13 [21] = experiment: Downregulation of cyclin-D1 levels in human MOLM-13 cells at 1 to 2 uM incubated for 12 hrs by western blot analysis; type: functional, cell-based; conditions: dose 1-2 µM
MOLM-13 [22] = experiment: Downregulation of c-myc levels in human MOLM-13 cells at 1 to 2 uM incubated for 12 hrs by western blot analysis; type: functional, cell-based; conditions: dose 1-2 µM
MOLM-13 [23] = experiment: Induction of cell cycle arrest in human MOLM-13 cells assessed as sub-G1 phase at 2 uM incubated for 12 hr by propidium iodide based flow cytometry analysis (Rvb= 4.78%); type: functional
MOLM-13 [24] = experiment: Induction of apoptosis in human MOLM-13 cells assessed as live cells at 2 uM incubated for 12 hrs by annexin-V and propidium iodide staining based flow cytometry analysis (reference value: 91.49%); type: functional
MOLM-13 [25] = experiment: Induction of apoptosis in human MOLM-13 cells assessed as necrotic cells at 2 uM incubated for 12 hrs by annexin-V and propidium iodide staining based flow cytometry analysis (reference value: 0.06%); type: functional
MOLM-13 [26] = experiment: Induction of cell cycle arrest in human MOLM-13 cells assessed as sub-G1 phase at 1 uM incubated for 12 hr by propidium iodide based flow cytometry analysis (Rvb= 4.78%); type: functional
MOLM-13 [27] = experiment: Induction of apoptosis in human MOLM-13 cells assessed as late apoptotic cells at 20 uM incubated for 12 hrs by annexin-V and propidium iodide staining based flow cytometry analysis (reference value: 3.03%); type: functional
MOLM-13 [28] = experiment: Induction of apoptosis in human MOLM-13 cells assessed as live cells at 40 uM incubated for 12 hrs by annexin-V and propidium iodide staining based flow cytometry analysis (reference value: 91.49%); type: functional
[29] = molecular target: MAP kinase-interacting serine/threonine-protein kinase 1 (Homo sapiens, UniProt Q9BUB5); experiment: Inhibition of MKN1 (unknown origin) at 1 uM in presence of ATP by HTRF assay
MOLM-13 [30] = experiment: Downregulation of mcl-1 levels in human MOLM-13 cells at 20 to 40 uM incubated for 12 hrs by western blot analysis; type: functional, cell-based; conditions: dose 20-40 µM
MOLM-13 [31] = experiment: Induction of apoptosis in human MOLM-13 cells assessed as early apoptotic cells at 20 uM incubated for 12 hrs by annexin-V and propidium iodide staining based flow cytometry analysis (reference value: 5.40%); type: functional
MOLM-13 [32] = experiment: Downregulation of c-myc levels in human MOLM-13 cells at 20 to 40 uM incubated for 12 hrs by western blot analysis; type: functional, cell-based; conditions: dose 20-40 µM
MOLM-13 [33] = experiment: Induction of cell cycle arrest in human MOLM-13 cells assessed as sub-G1 phase at 20 uM incubated for 12 hr by propidium iodide based flow cytometry analysis (Rvb= 4.78%); type: functional
[34] = molecular target: T1, Serine/threonine-protein kinase PIM (Homo sapiens); experiment: Inhibition of PIM in human MOLM-13 cells assessed as reduction of BAD phosphorylation at 20 to 40 uM incubated for 12 hrs by western blot analysis; type: cell-based; conditions: dose 20-40 µM
MOLM-13 [35] = experiment: Induction of cell cycle arrest in human MOLM-13 cells assessed as G1 phase at 40 uM incubated for 12 hr by propidium iodide based flow cytometry analysis (Rvb= 51.29%); type: functional
MOLM-13 [36] = experiment: Induction of apoptosis in human MOLM-13 cells assessed as late apoptotic cells at 40 uM incubated for 12 hrs by annexin-V and propidium iodide staining based flow cytometry analysis (reference value: 3.03%); type: functional
MOLM-13 [37] = experiment: Induction of cell cycle arrest in human MOLM-13 cells assessed as G1 phase at 20 uM incubated for 12 hr by propidium iodide based flow cytometry analysis (Rvb= 51.29%); type: functional
MOLM-13 [38] = experiment: Induction of apoptosis in human MOLM-13 cells assessed as live cells at 20 uM incubated for 12 hrs by annexin-V and propidium iodide staining based flow cytometry analysis (reference value: 91.49%); type: functional
MOLM-13 [39] = experiment: Induction of apoptosis in human MOLM-13 cells assessed as necrotic cells at 40 uM incubated for 12 hrs by annexin-V and propidium iodide staining based flow cytometry analysis (reference value: 0.06%); type: functional
[40] = molecular target: T1, Serine/threonine-protein kinase PIM (Homo sapiens); experiment: Inhibition of PIM in human MOLM-13 cells assessed as reduction in phosphorylated 4EBP1 at 20 to 40 uM incubated for 12 hrs by western blot analysis; type: cell-based; conditions: dose 20-40 µM
MOLM-13 [41] = experiment: Induction of apoptosis in human MOLM-13 cells assessed as early apoptotic cells at 40 uM incubated for 12 hrs by annexin-V and propidium iodide staining based flow cytometry analysis (reference value: 5.40%); type: functional
MOLM-13 [42] = experiment: Downregulation of cyclin-D1 levels in human MOLM-13 cells at 20 to 40 uM incubated for 12 hrs by western blot analysis; type: functional, cell-based; conditions: dose 20-40 µM
MOLM-13 [43] = experiment: Induction of apoptosis in human MOLM-13 cells assessed as necrotic cells at 20 uM incubated for 12 hrs by annexin-V and propidium iodide staining based flow cytometry analysis (reference value: 0.06%); type: functional
MOLM-13 [44] = experiment: Induction of cell cycle arrest in human MOLM-13 cells assessed as sub-G1 phase at 40 uM incubated for 12 hr by propidium iodide based flow cytometry analysis (Rvb= 4.78%); type: functional

T1 sequence (P11309 whole entry, looked up): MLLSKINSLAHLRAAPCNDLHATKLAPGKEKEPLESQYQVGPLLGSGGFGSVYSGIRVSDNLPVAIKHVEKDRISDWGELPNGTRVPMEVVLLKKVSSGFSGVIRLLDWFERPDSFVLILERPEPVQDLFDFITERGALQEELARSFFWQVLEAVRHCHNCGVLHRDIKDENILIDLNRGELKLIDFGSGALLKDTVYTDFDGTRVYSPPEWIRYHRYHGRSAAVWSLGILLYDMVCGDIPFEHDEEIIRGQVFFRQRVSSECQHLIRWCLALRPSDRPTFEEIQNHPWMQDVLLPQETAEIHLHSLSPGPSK
T1 sequence (Q9P1W9 whole entry, looked up): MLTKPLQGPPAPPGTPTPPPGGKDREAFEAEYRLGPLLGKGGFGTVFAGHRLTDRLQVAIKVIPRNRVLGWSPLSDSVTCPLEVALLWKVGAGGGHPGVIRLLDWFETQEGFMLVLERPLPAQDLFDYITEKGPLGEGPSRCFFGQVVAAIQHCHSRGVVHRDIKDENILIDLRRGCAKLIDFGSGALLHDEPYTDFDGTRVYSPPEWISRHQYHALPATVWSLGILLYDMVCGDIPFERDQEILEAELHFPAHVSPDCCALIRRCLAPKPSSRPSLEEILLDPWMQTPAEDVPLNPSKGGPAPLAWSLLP
MAP kinase-interacting serine/threonine-protein kinase 1, sequence (Q9BUB5 whole entry, looked up): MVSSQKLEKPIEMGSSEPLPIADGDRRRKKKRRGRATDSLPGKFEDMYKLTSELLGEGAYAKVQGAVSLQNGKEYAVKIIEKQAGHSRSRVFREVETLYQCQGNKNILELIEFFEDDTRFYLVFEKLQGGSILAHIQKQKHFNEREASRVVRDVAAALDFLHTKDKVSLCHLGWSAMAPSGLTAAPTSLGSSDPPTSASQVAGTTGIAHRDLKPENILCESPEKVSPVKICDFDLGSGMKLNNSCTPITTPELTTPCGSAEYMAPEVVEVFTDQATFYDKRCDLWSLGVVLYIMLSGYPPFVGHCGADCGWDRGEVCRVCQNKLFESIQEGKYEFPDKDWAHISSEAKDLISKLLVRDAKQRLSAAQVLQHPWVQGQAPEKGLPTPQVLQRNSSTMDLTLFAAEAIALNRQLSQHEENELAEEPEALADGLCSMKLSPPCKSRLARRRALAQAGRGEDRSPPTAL

SMILES: Cc1ncc2n1-c1ccc(Cl)cc1C(c1ccccc1F)=NC2 [MIDAZOLAM]
- CLint scaled [1]: 219 mL/min/kg
- half-life [2]: 2.64 min
- CLint scaled [3]: 939 mL/min/kg

SMILES: CN1CCC(CNc2ccc3ncc(-c4cccc(OC(F)(F)F)c4)n3n2)CC1 [SGI-1776]
- Activity (MOLM-13 [4]): 67.94%
- Activity (K562 [5]): inactive
- Activity (K562 [6]): inactive
- inhibition [7]: Active
- Activity (MOLM-13 [8]): 31.08%
- GI50 (MOLM-13 [9]): 0.13 µM
- Activity (MOLM-13 [10]): 24.57%
- GI50 (K562 [11]): 2.19 µM
- Activity (MOLM-13 [12]): 0.22%
- Activity (MOLM-13 [13]): 58.06%
- Activity (MOLM-13 [14]): 71.17%
- Activity (MOLM-13 [15]): 4.23%
- inhibition [16]: Active
- Activity (K562 [17]): inactive
- inhibition [18]: inactive
- Activity (MOLM-13 [19]): Active
- GI50 (HL-60): 1.28 µM
- Activity (MOLM-13 [20]): 4.05%
- Activity (MOLM-13 [21]): Active
- Activity (MOLM-13 [22]): Active
- Activity (MOLM-13 [23]): 26.08%
- Activity (MOLM-13 [24]): 64.56%
- Activity (MOLM-13 [25]): 0.13%
- Activity (MOLM-13 [26]): 15.68%

SMILES: Nc1ncnc2[nH]nc(Nc3ccc(F)cc3)c12
- Activity (MOLM-13 [27]): 3.05%
- Activity (MOLM-13 [28]): 83.9%
- inhibition [29]: 78%
- Activity (MOLM-13 [30]): Active
- Activity (MOLM-13 [31]): 9.93%
- GI50 (MOLM-13 [9]): 9.88 µM
- Activity (MOLM-13 [32]): Active
- GI50 (K562 [11]): 28.8 µM
- Activity (MOLM-13 [33]): 8.3%
- inhibition [34]: inactive
- Activity (MOLM-13 [35]): 62.49%
- Activity (MOLM-13 [36]): 2.73%
- Activity (MOLM-13 [37]): 65.2%
- Activity (MOLM-13 [38]): 86.89%
- GI50 (HL-60): 7.26 µM
- Activity (MOLM-13 [39]): 0.18%
- inhibition [40]: Active
- Activity (MOLM-13 [41]): 13.19%
- Activity (MOLM-13 [42]): Active
- Activity (MOLM-13 [43]): 0.04%
- Activity (MOLM-13 [44]): 12.28%
